Test results published in ChEMBL document CHEMBL1145410 (Bioorg Med Chem Lett, 2007).

Assays:
Dipeptidyl peptidase 8 = Dipeptidyl peptidase 8 (Homo sapiens, UniProt Q6V1X1); experiment: Inhibition of DPP8
Dipeptidyl peptidase 9 = Dipeptidyl peptidase 9 (Homo sapiens, UniProt Q86TI2); experiment: Inhibition of DPP9
Dipeptidyl peptidase 4 = Dipeptidyl peptidase 4 (Homo sapiens, UniProt P27487); experiment: Inhibition of DPP4
Dipeptidyl peptidase 2 = Dipeptidyl peptidase 2 (Homo sapiens, UniProt Q9UHL4); experiment: Inhibition of QPP
[1] = Inhibition of rabbit calcium channel L type; set-up: species or system Oryctolagus cuniculus
Cytochrome P450 2D6 = Cytochrome P450 2D6 (Homo sapiens, UniProt P10635); experiment: Inhibition of Cyp2D6; assay type: ADME
[2] = Plasma clearance in rat at 1 mg/kg iv or 2 mg/kg po; assay type: ADME, organism-based
[3] = Half life in rat at 1 mg/kg iv or 2 mg/kg po; assay type: ADME, organism-based; conditions: in vivo
[4] = Bioavailability iin rat at 1 mg/kg iv or 2 mg/kg po; assay type: ADME, organism-based; conditions: in vivo
[5] = biological target: Voltage-gated inwardly rectifying potassium channel KCNH2 (Homo sapiens, UniProt Q12809); experiment: Inhibition of human ERG potassium channel
Sequence of Voltage-gated inwardly rectifying potassium channel KCNH2 (Q12809 whole entry): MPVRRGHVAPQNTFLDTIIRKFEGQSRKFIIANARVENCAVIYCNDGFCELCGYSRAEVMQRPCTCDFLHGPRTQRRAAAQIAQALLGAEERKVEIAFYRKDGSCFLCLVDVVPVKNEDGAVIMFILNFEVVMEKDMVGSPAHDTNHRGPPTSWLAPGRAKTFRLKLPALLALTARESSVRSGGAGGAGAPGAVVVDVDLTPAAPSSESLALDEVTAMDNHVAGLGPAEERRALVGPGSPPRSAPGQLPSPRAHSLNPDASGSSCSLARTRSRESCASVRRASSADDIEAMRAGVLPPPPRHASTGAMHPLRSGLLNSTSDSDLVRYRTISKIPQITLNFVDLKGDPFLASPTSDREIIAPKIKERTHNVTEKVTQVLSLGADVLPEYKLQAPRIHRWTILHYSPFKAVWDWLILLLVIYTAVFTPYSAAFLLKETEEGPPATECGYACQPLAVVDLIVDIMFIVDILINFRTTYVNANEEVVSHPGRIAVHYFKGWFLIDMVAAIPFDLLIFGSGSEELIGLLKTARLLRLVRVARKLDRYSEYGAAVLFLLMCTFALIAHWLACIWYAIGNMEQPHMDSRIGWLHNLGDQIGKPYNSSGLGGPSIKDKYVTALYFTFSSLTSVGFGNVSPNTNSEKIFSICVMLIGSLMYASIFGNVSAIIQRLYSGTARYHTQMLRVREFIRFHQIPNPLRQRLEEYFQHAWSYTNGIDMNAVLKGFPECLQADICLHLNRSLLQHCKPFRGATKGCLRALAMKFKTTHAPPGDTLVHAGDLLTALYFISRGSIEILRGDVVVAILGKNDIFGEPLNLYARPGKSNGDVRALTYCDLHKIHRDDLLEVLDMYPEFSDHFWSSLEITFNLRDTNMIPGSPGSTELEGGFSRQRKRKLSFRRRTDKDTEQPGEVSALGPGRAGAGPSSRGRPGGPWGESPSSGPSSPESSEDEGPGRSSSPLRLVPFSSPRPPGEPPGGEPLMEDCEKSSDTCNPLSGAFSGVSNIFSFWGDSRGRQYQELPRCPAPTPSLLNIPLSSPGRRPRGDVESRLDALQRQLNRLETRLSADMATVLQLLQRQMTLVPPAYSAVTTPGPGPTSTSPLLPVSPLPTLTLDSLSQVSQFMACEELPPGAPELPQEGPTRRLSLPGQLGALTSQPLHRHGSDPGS

Sequence of Dipeptidyl peptidase 4 (P27487 whole entry): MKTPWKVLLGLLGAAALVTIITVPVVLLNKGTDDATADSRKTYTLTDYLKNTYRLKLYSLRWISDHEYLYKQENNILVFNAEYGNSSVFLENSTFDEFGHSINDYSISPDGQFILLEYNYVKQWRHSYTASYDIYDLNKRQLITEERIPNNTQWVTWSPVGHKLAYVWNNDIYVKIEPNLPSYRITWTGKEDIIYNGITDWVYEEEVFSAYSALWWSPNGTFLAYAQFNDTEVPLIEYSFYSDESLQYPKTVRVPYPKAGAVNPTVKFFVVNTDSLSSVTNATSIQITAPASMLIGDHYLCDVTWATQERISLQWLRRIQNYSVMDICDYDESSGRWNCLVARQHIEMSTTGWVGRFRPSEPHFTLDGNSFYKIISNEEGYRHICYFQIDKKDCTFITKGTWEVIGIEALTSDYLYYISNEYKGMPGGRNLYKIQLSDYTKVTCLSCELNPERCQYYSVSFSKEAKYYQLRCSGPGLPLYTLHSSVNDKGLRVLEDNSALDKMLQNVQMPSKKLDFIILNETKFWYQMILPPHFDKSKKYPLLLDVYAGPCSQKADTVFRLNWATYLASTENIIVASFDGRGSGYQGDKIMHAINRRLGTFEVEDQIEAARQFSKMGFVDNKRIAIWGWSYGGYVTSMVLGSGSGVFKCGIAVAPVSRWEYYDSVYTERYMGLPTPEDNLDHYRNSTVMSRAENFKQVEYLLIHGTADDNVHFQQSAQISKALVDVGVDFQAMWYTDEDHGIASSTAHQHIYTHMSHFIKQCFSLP
Sequence of Cytochrome P450 2D6 (P10635 whole entry): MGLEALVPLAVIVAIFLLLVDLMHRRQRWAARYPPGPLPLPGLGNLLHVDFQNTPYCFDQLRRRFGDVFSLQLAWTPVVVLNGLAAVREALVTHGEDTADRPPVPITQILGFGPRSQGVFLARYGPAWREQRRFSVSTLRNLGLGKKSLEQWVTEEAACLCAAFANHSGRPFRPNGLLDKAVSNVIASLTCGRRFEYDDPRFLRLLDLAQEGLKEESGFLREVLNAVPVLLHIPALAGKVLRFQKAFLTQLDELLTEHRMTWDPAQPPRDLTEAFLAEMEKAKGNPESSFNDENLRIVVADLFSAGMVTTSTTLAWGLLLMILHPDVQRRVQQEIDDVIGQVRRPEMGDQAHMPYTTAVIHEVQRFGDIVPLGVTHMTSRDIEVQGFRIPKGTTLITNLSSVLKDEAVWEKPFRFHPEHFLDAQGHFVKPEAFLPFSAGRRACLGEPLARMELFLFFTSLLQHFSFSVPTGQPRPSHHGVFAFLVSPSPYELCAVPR
Sequence of Dipeptidyl peptidase 9 (Q86TI2 whole entry): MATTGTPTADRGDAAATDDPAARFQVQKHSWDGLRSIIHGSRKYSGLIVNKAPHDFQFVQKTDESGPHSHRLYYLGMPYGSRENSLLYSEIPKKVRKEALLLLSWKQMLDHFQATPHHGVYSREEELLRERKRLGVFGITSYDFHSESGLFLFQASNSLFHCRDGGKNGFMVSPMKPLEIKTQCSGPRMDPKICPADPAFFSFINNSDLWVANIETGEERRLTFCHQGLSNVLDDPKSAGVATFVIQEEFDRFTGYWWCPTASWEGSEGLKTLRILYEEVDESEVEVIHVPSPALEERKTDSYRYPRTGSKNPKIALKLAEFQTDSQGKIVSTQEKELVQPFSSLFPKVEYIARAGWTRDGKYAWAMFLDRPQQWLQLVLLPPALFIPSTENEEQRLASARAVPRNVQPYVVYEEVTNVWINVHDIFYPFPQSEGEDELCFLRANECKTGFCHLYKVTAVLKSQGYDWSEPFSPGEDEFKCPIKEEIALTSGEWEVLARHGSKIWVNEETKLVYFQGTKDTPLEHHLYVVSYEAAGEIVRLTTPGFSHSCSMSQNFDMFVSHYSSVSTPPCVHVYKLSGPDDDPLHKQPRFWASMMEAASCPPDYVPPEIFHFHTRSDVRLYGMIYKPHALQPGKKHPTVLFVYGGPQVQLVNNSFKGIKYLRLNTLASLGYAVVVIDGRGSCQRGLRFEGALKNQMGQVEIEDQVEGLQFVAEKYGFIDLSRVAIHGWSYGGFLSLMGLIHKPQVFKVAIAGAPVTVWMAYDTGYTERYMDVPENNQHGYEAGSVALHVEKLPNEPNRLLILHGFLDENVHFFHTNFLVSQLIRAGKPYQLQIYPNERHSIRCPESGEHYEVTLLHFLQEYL
Sequence of Dipeptidyl peptidase 8 (Q6V1X1 whole entry): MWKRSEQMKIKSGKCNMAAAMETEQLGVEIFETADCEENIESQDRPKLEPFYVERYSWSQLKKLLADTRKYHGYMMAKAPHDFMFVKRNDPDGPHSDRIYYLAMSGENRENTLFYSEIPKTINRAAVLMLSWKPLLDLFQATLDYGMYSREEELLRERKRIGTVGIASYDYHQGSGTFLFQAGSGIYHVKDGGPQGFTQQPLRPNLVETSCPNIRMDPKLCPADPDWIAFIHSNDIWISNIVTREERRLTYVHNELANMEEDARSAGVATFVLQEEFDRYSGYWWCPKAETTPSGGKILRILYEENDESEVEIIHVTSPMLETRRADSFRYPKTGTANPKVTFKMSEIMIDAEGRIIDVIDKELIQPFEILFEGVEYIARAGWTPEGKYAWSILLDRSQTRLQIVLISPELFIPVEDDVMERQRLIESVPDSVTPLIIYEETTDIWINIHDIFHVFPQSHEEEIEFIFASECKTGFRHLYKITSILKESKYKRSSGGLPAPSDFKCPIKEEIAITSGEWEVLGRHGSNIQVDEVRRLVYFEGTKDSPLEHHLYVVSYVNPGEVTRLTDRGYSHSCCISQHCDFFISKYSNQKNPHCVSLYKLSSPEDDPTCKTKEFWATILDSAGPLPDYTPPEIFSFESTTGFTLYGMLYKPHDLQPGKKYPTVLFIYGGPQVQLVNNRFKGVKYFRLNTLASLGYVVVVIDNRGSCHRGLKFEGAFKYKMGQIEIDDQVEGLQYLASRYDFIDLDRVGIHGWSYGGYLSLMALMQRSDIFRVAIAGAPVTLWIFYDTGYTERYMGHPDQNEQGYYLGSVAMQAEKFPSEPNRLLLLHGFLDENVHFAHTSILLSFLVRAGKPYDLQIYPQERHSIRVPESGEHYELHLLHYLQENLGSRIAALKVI

Compound	IC50 (Dipeptidyl peptidase 8) [µM]	IC50 (Dipeptidyl peptidase 9) [µM]	IC50 (Dipeptidyl peptidase 4) [µM]	IC50 (Dipeptidyl peptidase 2) [µM]	IC50 [1] [µM]	IC50 (Cytochrome P450 2D6) [µM]	clearance [2] [mL/min/kg]	half-life [3] [h]	bioavailability [4] [%]	IC50 [5] [µM]
N[C@H]1CN(c2ccc3nnc(C(F)(F)F)n3n2)CC[C@@H]1c1cc(F)c(F)cc1F	> 100	90	0.009	96	–	–	–	–	–	–
N[C@H]1CN(c2ccc3nnc(-c4ccc(F)cc4)n3n2)CC[C@@H]1c1cc(F)c(F)cc1F	–	–	–	15	–	–	–	–	–	–
N[C@H]1CN(c2ccccn2)CC[C@@H]1c1cc(F)c(F)cc1F	34	38	0.058	50	–	–	–	–	–	–
N[C@H]1CN(c2cccnc2)CC[C@@H]1c1cc(F)c(F)cc1F	54	36	0.144	82	–	–	–	–	–	–
N[C@H]1CN(c2cccc(C(F)(F)F)n2)CC[C@@H]1c1cc(F)c(F)cc1F	> 100	21	0.111	5.3	–	–	–	–	–	–
N[C@H]1CN(c2ncccc2C(F)(F)F)CC[C@@H]1c1cc(F)c(F)cc1F	> 100	> 100	–	–	–	–	–	–	–	–
N#Cc1ccc(N2CC[C@H](c3cc(F)c(F)cc3F)[C@@H](N)C2)nc1	5.8	9.6	0.014	40	–	–	–	–	–	–
N[C@H]1CN(c2ccncn2)CC[C@@H]1c1cc(F)c(F)cc1F	60	67	0.037	> 100	26.9	–	–	–	–	–
N[C@H]1CN(c2cnccn2)CC[C@@H]1c1cc(F)c(F)cc1F	76	40	0.082	33	–	–	–	–	–	–
N[C@H]1CN(c2cccnn2)CC[C@@H]1c1cc(F)c(F)cc1F	40	44	0.063	> 100	–	–	–	–	–	–
N[C@H]1CN(c2nccc3ccccc23)CC[C@@H]1c1cc(F)c(F)cc1F	> 100	> 100	3.7	32	–	–	–	–	–	–
N[C@H]1CN(c2ccc3nccnc3n2)CC[C@@H]1c1cc(F)c(F)cc1F	25	50	0.007	35	–	–	–	–	–	–
N[C@H]1CN(c2cnc3cccnc3n2)CC[C@@H]1c1cc(F)c(F)cc1F	66	> 100	0.13	58	–	–	–	–	–	–
N[C@H]1CN(c2cnc3cncnc3n2)CC[C@@H]1c1cc(F)c(F)cc1F	–	–	–	87	–	–	–	–	–	–
N[C@H]1CN(c2cnc3nccnc3n2)CC[C@@H]1c1cc(F)c(F)cc1F.O=C(O)C(F)(F)F	54	> 100	0.013	93	4.1	11.6	62	1.4	45	–
N[C@H]1CN(c2ccc3nc(C(F)(F)F)nn3n2)CC[C@@H]1c1cc(F)c(F)cc1F	> 100	> 100	0.005	> 100	1	0.1	–	–	–	8.1
N[C@H]1CN(c2ccn3cnnc3n2)CC[C@@H]1c1cc(F)c(F)cc1F.O=C(O)C(F)(F)F	30	43	0.026	> 100	–	20.6	54	1.5	19	–

Compound	IC50 (Dipeptidyl peptidase 8) [µM]	IC50 (Dipeptidyl peptidase 9) [µM]	IC50 (Dipeptidyl peptidase 4) [µM]	IC50 (Dipeptidyl peptidase 2) [µM]	IC50 [1] [µM]	IC50 (Cytochrome P450 2D6) [µM]	clearance [2] [mL/min/kg]	half-life [3] [h]	bioavailability [4] [%]	IC50 [5] [µM]
N[C@H]1CN(c2ccc3ncnc(C4CC4)c3n2)CC[C@@H]1c1cc(F)c(F)cc1F	28	32	0.008	9.9	–	–	–	–	–	–
Cc1nc2ccc(N3CC[C@H](c4cc(F)c(F)cc4F)[C@@H](N)C3)nc2c(=O)[nH]1	80	> 100	0.007	46	–	–	–	–	–	–
N[C@H]1CN(c2ccc3nc(=O)ccn3n2)CC[C@@H]1c1cc(F)c(F)cc1F.O=C(O)C(F)(F)F	> 100	19	0.0012	> 100	84.6	55.4	35	1.6	12	100
Cc1cc(=O)n2nc(N3CC[C@H](c4cc(F)c(F)cc4F)[C@@H](N)C3)ccc2n1.O=C(O)C(F)(F)F	> 100	> 100	0.008	> 100	18.5	16.2	18	1.4	74	33.2
N[C@H]1CN(c2ccc3nncn3n2)CC[C@@H]1c1cc(F)c(F)cc1F	> 100	> 100	0.031	> 100	–	–	–	–	–	–
Cc1nnc2ccc(N3CC[C@H](c4cc(F)c(F)cc4F)[C@@H](N)C3)nn12.O=C(O)C(F)(F)F	> 100	> 100	0.006	74	2	–	12	4.7	100	–
N[C@H]1CN(c2ccc(C(F)(F)F)cn2)CC[C@@H]1c1cc(F)c(F)cc1F	–	–	–	28	–	–	–	–	–	–
N[C@H]1CN(c2ccc3ccccc3n2)CC[C@@H]1c1cc(F)c(F)cc1F	10	13	0.054	21	–	–	–	–	–	–
N[C@H]1CN(c2cnc3ccccc3n2)CC[C@@H]1c1cc(F)c(F)cc1F	–	–	–	27	–	–	–	–	–	–
N[C@H]1CN(c2ccc3nc(C(F)(F)F)cn3n2)CC[C@@H]1c1cc(F)c(F)cc1F	49	75	0.022	64	–	–	–	–	–	–
Cn1c(C2CC2)nc2ccc(N3CC[C@H](c4cc(F)c(F)cc4F)[C@@H](N)C3)nc21	> 100	57	0.002	41	–	–	–	–	–	–
CCc1nnc2ccc(N3CC[C@H](c4cc(F)c(F)cc4F)[C@@H](N)C3)nn12	–	–	–	90	–	–	–	–	–	–
N[C@H]1CN(c2ccccc2)CC[C@@H]1c1cc(F)c(F)cc1F	33	39	0.21	5.5	–	–	–	–	–	–
N[C@H]1CN(c2ccncc2)CC[C@@H]1c1cc(F)c(F)cc1F	43	35	0.125	46	–	–	–	–	–	–
Cn1nc2ccc(N3CC[C@H](c4cc(F)c(F)cc4F)[C@@H](N)C3)nn2c1=O	–	–	–	57	–	–	–	–	–	–
N[C@H]1CN(c2ncccn2)CC[C@@H]1c1cc(F)c(F)cc1F	33	58	0.09	54	–	–	–	–	–	–
